Consider 9 compounds from article PMC9950556, “Acetylcholinesterase inhibitory activity of sesquiterpenoids isolated from Laggera pterodonta” (Frontiers in Plant Science, 2023).

Molecules are shown by their SMILES. Several values for one entry are separate records, joined by “and”; a condition that tells them apart may be missing. Equal entries are not always repeated. Entries after “also recorded” stand apart in the source; their conditions may differ.

One experiment has as its system C. elegans. Briefly: Toxic effects of compounds on C. elegans (lethality). Type of experiment: in vivo. The note with it: Caenorhabditis elegans, 48 h, mean ± SD, read-out: Lethality rate (%); for mortality at 500 µg/mL: compound 0.5 mg/mL. The method, then:
In the toxicity analysis, 95 µL of the nematode solution (containing approximately 80 C. elegans) along with 5 µL of each compound was added to a 96-well plate. The final concentration of each compound was 0.5 mg/mL, and chlorpyrifos (20 µg/mL) was used as the positive control. The samples were mixed sufficiently, followed by 48-h incubation of plates under RT, and subsequently, the dead nematodes were counted to determine the lethality rate ([Roh and Choi, 2008]).

The test system of a further experiment is C. elegans AChE. The experiment can be described thus: Determination of IC50 of compounds to AChE (Ellman method, nematode homogenate). It counts as biochemical. The note with it: 2-h incubation at 37°C, mean ± SD, triplicates, read-out: IC50 of AChE inhibition. The method, then:
Third-instar juvenile stage samples of C. elegans were thoroughly ground using a glass homogenizer. The homogenate was then dissolved in PBS (pH 7.0, which contained 0.1% Triton X-100) using a suitable volume, followed by a 30-min centrifugation at 6000 r/min under 4°C to harvest supernatants to analyze the enzymes ([Ellman et al., 1961]; [Zhao et al., 2018]) [Nematode (3rd instar): 4000 individuals/mL].
After dissolving the eight compounds and chlorpyrifos in acetone, multiple dilutions were made to obtain test concentrations at 5 levels. Thereafter, the test solution of every level (4 µL) was blended with the enzyme solution (96 µL), followed by 2-h incubation at 37°C in a 96-well plate. The final concentrations of compounds were 29.25, 58.50, 117.00, 234.00, and 468.00 µg/mL, respectively. Thereafter, 1.5 mM acetylthiocholine iodide (ATCHI) (50 µL) was added for a further 0.5-h incubation at 37°C. The reaction was finally terminated by adding 0.3 mM 5,5′- dithiobis (2 - nitrobenzoic acid) (DTNB) (50 µL). Afterward, the residual activity of acetylcholinesterase was measured with a microplate reader at 405 nm. Corresponding treatments were then applied to different groups as given below:
The inhibition rate (%) was calculated follows:
I%=[1−(Treatment group−Compound control group)/(Substrate control group−PBS control group)]×100%
(Ellman's reagent forms a yellow product with free thiols.)

Another experiment addresses nematode AChE. Briefly: Kinetic study on the inhibitory effect of AChE by compound (Lineweaver-Burk and Dixon plots). Type of experiment: biochemical, C. elegans. Here is the method:
This study prepared the enzyme solution at multiple gradients (0.125, 0.25, 0.5, and 1.0 U/mL). After adding compound 5 (29.25, 58.50, 117.00, 234.00, and 468.00 µg/mL), the mixed sample was then subjected to a 1-h incubation on a 96-well plate at 37°C (the buffer was used as a substitute for the control group). Later, 1.5 mM ATCHI (50 µL) was added and incubated for a 30-min period, followed by an addition of the 0.3 mM DTNB (50 µL). After 30 s, a microplate reader was utilized to record the OD value at 405 nm (five times at 1-min intervals). The change in the OD value every minute was used to calculate the reaction rate (ΔA/min). Later, the reaction rate curve, as a function of enzyme concentration, was plotted to compare reaction rates (v) among diverse test compound levels. Associations between diverse enzyme levels were utilized to evaluate the inhibitory effect of the compound on nematode AChE ([Xiong et al., 2016]).

By IC50 is commonly meant the concentration that inhibits the measured activity by half.

On to `CCOP(=S)(OCC)Oc1nc(Cl)c(Cl)cc1Cl` [Chlorpyrifos, chlorpyrifos, reference compound], for which the mortality at 20 µg/mL in the experiment on C. elegans (positive control 20 µg/mL) was 81.7 ± 2.6%. In the experiment on C. elegans AChE, the IC50 worked out at 7.33 ± 0.58 µM.
Regarding `C=C(C(=O)O)C1CCC2=CC(O)CC(C)C2(C)C1` (centres unmarked) [Compound 1, laggeranine A], the mortality at 500 µg/mL in the experiment with C. elegans was found to be 38.8 ± 2.5%. Further, in the experiment with C. elegans AChE, the IC50 was < 530 µM and 518 µM.
For `C=C(C(=O)OCC)[C@@H]1CC[C@@]2(C)CCCC(=C)[C@]2(O)C1` [Compound 2, laggeranine B], the mortality at 500 µg/mL with C. elegans was 31.7 ± 0.72%. In the experiment with C. elegans AChE, the IC50 was < 710 µM and 701 µM.
Consider `C=C(C(=O)O)[C@H]1C=C2[C@@H](C)CCC[C@]2(C)CC1` [Compound 3, eudesma-5,12-dien-13-oic acid], for which the mortality at 500 µg/mL in the experiment on C. elegans stood at 60.8 ± 2.6%. Moreover, in the experiment on C. elegans AChE, the IC50 was 464 ± 10 µM.
Regarding `C=C(C(=O)O)[C@@H]1CC[C@@]2(C)CCCC(C)=C2C1` [Compound 4, isocostic acid], the mortality at 500 µg/mL in the experiment on C. elegans is 30.8 ± 1.91%. Moreover, the IC50 in the experiment with C. elegans AChE was < 530 µM and 528 µM.
On to `C=C1CCC[C@]2(C)CC[C@@H](C(=C)C(=O)O)CC12` (some centres unmarked) [Compound 5, costic acid], for which the mortality at 500 µg/mL in the experiment with C. elegans turned out to be 72.9 ± 3.15%. Further, the “Ki (dissociation constant of the enzyme-inhibitor complex)” value on nematode AChE (Dixon plot, substrate 3 and 6 mM) was determined as 24.668 µg/mL. The “type of AChE inhibition” value in the experiment with nematode AChE (enzyme-concentration plot, Lineweaver-Burk and Dixon plots) was “reversible inhibitor; also recorded: mixed-type competitive”. The IC50 in the experiment on C. elegans AChE was determined as 437 ± 8.33 µM.
On to `C=C(C(=O)O)[C@@H]1CC[C@@]2(C)CCC[C@H](C)[C@]2(O)C1` [Compound 6, 5α-hydroxy-4α,15-dihydrocostic acid], for which the mortality at 500 µg/mL with C. elegans was 48.8 ± 2.5%. Further, the IC50 in the experiment with C. elegans AChE was found to be 470 ± 15.6 µM.
The like results for `C=C(C(=O)O)[C@@H]1CC[C@@]2(C)CCCC(=C)[C@]2(O)C1` [Compound 7, 5α-hydroxycostic acid] were, in that order, 50.8 ± 1.91% and 485 ± 11.5 µM.
On to `C=C(C(=O)O)[C@@H]1CC[C@@]2(C)CCC(=O)C(C)=C2C1` [Compound 8, 3-oxo-di-nor-eudesma-4-en-11-oic acid], for which, in the experiment with C. elegans, the mortality at 500 µg/mL came to 34.6 ± 1.44%. Also, in the experiment with C. elegans AChE, the IC50 was < 710 µM and 697 µM.
